Measurements taken from patent US20070032477A1, “Pteridine derivatives useful for making pharmaceutical compositions” (priority 2003, published 2007).

Columns and labels:
[1] = test system: mixed lymphocyte reaction (PBMC with allogeneic PBMC or Eppstein-Barr Virus-transformed human B cells as stimulator cells); assay: Mixed lymphocyte reaction (MLR) assay; type: cell-based; conditions: lowest concentration giving 50% suppression of the MLR; [3H]-thymidine
[2] = test system: production of IL-1 β by PBMC in response to stimulation by LPS; assay: IL-1 β assay; type: cell-based, human; conditions: LPS 1 μg/ml, 72 hours, sandwich ELISA
Protocol: Peripheral blood mononuclear cells (herein referred as PBMC), in response to stimulation by lipopolysaccharide (LPS), a gram-negative bacterial endotoxin, produce various […], in particular human IL-1 β. Inhibition of the activation of PBMC can therefore be measured by the level of suppression of the production of IL-1 β by PBMC in response to stimulation by LPS.
Such inhibition measurement was performed as follows: PBMC were isolated from heparinized peripheral blood by density gradient centrifugation over Lymphoprep (commercially available from Nycomed, Norway). LPS was then added to the PMBC suspension in complete medium (10^6 cells/ml) at a final concentration of 1 μg/ml. The pteridine derivative to be tested was added at different concentrations (0.1 μM, 1 μM and 10 μM) and the cells were incubated at 37° C. for 72 hours in 5% CO2. The supernatants were collected, then IL-1 β concentrations were measured with an anti-IL-1 β antibody in a sandwich ELISA. The calorimetric reading of the ELISA was measured by a Multiskan RC plate reader (commercially available from ThermoLabsystems, Finland) at 450 nm (reference wavelength: 690 nm). Data analysis was performed with Ascent software 2.6. (also from ThermoLabsystems, Finland): a standard curve (recombinant human IL-1 β) was drawn and the amount (pg/ml) of each sample on the standard curve was determined.
The % suppression of human IL-1 β by the pteridine derivatives (drugs) of this invention was calculated using the formula: [formula]

[3] = test system: production of TNF-α by PBMC in response to stimulation by LPS; assay: TNF-α assay; type: cell-based, human; conditions: LPS 1 μg/ml, 72 hours, sandwich ELISA
Procedure, shortened: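 Cells were LPS-stimulated (1 μg/ml final) peripheral blood mononuclear cells at 10^6/ml, exposed 72 h at 37 °C to 0.1, 1 or 10 μM test compound.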

Row | Molecule | IC50 [1] | IC50 [2] | IC50 [3]
1 | 2-amino-4-(1-butylpiperazino)-6-(3,4-dimethoxyphenyl)pteridine [Example 125] | 800 nM | 7500 nM | –
2 | 2-amino-4-(1-isopropylpiperazino)-6-(3,4-dimethoxyphenyl)pteridine [Example 126] | 4900 nM | 3700 nM | –
3 | 2-amino-4-(3-(piperazin-1-yl)-propionic acid ethyl ester)-6-(3,4-dimethoxyphenyl)pteridine [Example 134] | – | 1200 nM | 70 nM
4 | 2-amino-4-((1-phenylethyl)-piperazin-1-yl)-6-(3,4-dimethoxyphenyl)pteridine [Example 152] | 1200 nM | 3600 nM | 300 nM
5 | 2-amino-4-((2-pyridyl)-piperazin-1-yl)-6-(3,4-dimethoxyphenyl)pteridine [Example 146] | 200 nM | 5000 nM | 200 nM
6 | 2-amino-4-((3-dichlorophenyl)-piperazin-1-yl)-6-(3,4-dimethoxyphenyl)pteridine [Example 151] | – | 3700 nM | 100 nM
7 | 2-amino-4-((3-methoxyphenyl)-piperazin-1-yl)-6-(3,4-dimethoxyphenyl)pteridine [Example 148] | 300 nM | 7200 nM | 300 nM
8 | COc1ccc(-c2cnc3nc(N)nc(N4CCN(C(=O)c5ccc(Cl)cc5)CC4)c3n2)cc1OC [Example 12] | 300 nM | 5000 nM | 200 nM
9 | COc1ccc(-c2cnc3nc(N)nc(N4CCN(C(=O)CCc5ccccc5)CC4)c3n2)cc1OC [Example 15, 2-amino-4-[(N-hydrocinnamoyl)-piperazin-1-yl]-6-(3,4-dimethoxyphenyl)pteridine] | 100 nM | 7000 nM | 10 nM
10 | COc1ccc(-c2cnc3nc(N)nc(N4CCN(C(=O)N(C(C)C)C(C)C)CC4)c3n2)cc1OC [Example 20, 2-amino-4-[(N-diisopropylcarbamoyl)-piperazin-1-yl]-6-(3,4-dimethoxy-phenyl)pteridine] | 500 nM | 8500 nM | 30 nM
11 | CCCCCOc1ccc(C(=O)N2CCN(c3nc(N)nc4ncc(-c5ccc(OC)c(OC)c5)nc34)CC2)cc1 [Example 21, 2-amino-4-[N-(4-pentoxybenzoyl)-piperazin-1-yl]-6-(3,4-dimethoxy-phenyl)pteridine] | 6000 nM | 6700 nM | –
12 | COc1ccc(-c2cnc3nc(N)nc(N4CCN(C(=O)Cc5cccs5)CC4)c3n2)cc1OC [Example 36, 2-amino-4-[(N-2-thiophenacetyl)-piperazin-1-yl]-6-(3,4-dimethoxy-phenyl)pteridine] | 800 nM | 800 nM | 300 nM
13 | COc1ccc(-c2cnc3nc(N)nc(N4CCN(C(=O)C=Cc5ccccc5)CC4)c3n2)cc1OC [Example 37, 2-amino-4-[(N-cinnamoyl)-piperazin-1-yl]-6-(3,4-dimethoxyphenyl)pteridine] | < 1 nM | 3300 nM | 100 nM
14 | COc1ccc(-c2cnc3nc(N)nc(N4CCN(C(=O)c5cccc6ccccc56)CC4)c3n2)cc1OC [Example 46] | – | 800 nM | 200 nM
15 | COc1ccc(-c2cnc3nc(N)nc(N4CCN(C(=S)N(C)C)CC4)c3n2)cc1OC [Example 49, 2-amino-4-[(N-dimethylthiocarbamoyl)-piperazin-1-yl]-6-(3,4-dimethoxy-phenyl)pteridine] | 400 nM | 2200 nM | 70 nM
16 | COc1ccc(-c2cnc3nc(N)nc(N4CCN(C(=O)Oc5ccccc5)CC4)c3n2)cc1OC [Example 50, 2-amino-4-[(N-phenoxycarbonyl)-piperazin-1-yl]-6-(3,4-dimethoxy-phenyl)pteridine] | 65 nM | 5500 nM | 20 nM
17 | CC(=O)N1CCN(c2nc(N)nc3ncc(-c4ccc(C)cc4)nc23)CC1 [Example 56, 2-amino-4-(N-acetylpiperazin-1-yl)-6-(4-tolyl)pteridine] | 2800 nM | 8700 nM | 3700 nM

Row | Molecule | IC50 [1] | IC50 [2] | IC50 [3]
18 | CC(=O)N1CCN(c2nc(N)nc3ncc(-c4ccc(F)cc4)nc23)CC1 [Example 57, 2-amino-4-(N-acetylpiperazin-1-yl)-6-(4-fluoro-phenyl)pteridine] | 1900 nM | 9500 nM | –
19 | COc1ccc(-c2cnc3nc(N)nc(N4CCN(c5ccccc5)CC4)c3n2)cc1OC [Example 64, 2-amino-4-(N-phenylpiperazin-1-yl)-6-(3,4-dimethoxyphenyl)pteridine] | 400 nM | 4400 nM | 50 nM
20 | COc1ccc(-c2cnc3nc(N)nc(N4CCN(Cc5ccccc5)CC4)c3n2)cc1OC [Example 65, 2-amino-4-(N-benzylpiperazin-1-yl)-6-(3,4-dimethoxyphenyl)pteridine] | – | 3500 nM | 95 nM
21 | COc1ccc(OC(=O)N2CCN(c3nc(N)nc4ncc(-c5ccc(OC)c(OC)c5)nc34)CC2)cc1 [Example 91, 2-amino-4-[(N-4-methoxy-phenoxy-carbonyl)-piperazin-1-yl]-6-(3,4-dimethoxy-phenyl)pteridine] | 52 nM | 4200 nM | 60 nM
22 | COc1ccc(-c2cnc3nc(N)nc(N4CCN(C(=O)Oc5ccc(F)cc5)CC4)c3n2)cc1OC [Example 92, 2-amino-4-[(N-4-fluoro-phenoxy-carbonyl)-piperazin-1-yl]-6-(3,4-dimethoxyphenyl)pteridine] | 50 nM | 8600 nM | 60 nM
23 | COc1ccc(-c2cnc3nc(N)nc(N4CCN(C(=O)Oc5ccccc5OC)CC4)c3n2)cc1OC [Example 93] | 70 nM | 4500 nM | 50 nM
24 | COc1ccc(-c2cnc3nc(N)nc(N4CCN(C(=O)OCC(C)C)CC4)c3n2)cc1OC [Example 95, 2-amino-4-[N-isobutoxy-carbonyl-piperazin-1-yl]-6-(3,4-dimethoxyphenyl)pteridine] | 120 nM | 1000 nM | 100 nM
25 | COc1ccc(-c2cnc3nc(N)nc(N4CCN(C(=O)Oc5ccc6ccccc6c5)CC4)c3n2)cc1OC [Example 98] | 120 nM | 6200 nM | 80 nM
26 | COc1ccc(-c2cnc3nc(N)nc(N4CCN(C(=O)Nc5ccc(F)cc5)CC4)c3n2)cc1OC [Example 100] | 7.4 nM | 7400 nM | 510 nM
27 | COc1ccc(-c2cnc3nc(N)nc(N4CCN(C(=O)Nc5ccc(C)cc5)CC4)c3n2)cc1OC [Example 101, 2-amino-4-(N-4-methylphenyl-carbamoyl-piperazin-1-yl)-6-(3,4-dimethoxyphenyl)pteridine] | 0.8 nM | 5600 nM | 430 nM
28 | COc1ccc(-c2cnc3nc(N)nc(N4CCN(C(=O)Nc5ccsc5)CC4)c3n2)cc1OC [Example 107, 2-amino-4-(N-3-thienylcarbamoyl-piperazin-1-yl)-6-(3,4-dimethoxyphenyl)pteridines] | 3 nM | 800 nM | 500 nM
29 | COc1ccc(-c2cnc3nc(N)nc(N4CCN(C(=O)NCCc5cccs5)CC4)c3n2)cc1OC [Example 108, 2-amino-4-[N-2-(2-thienyl)ethylcarbamoyl-piperazin-1-yl]-6-(3,4-dimethoxyphenyl)pteridine] | 34 nM | 1000 nM | 400 nM
30 | COc1ccc(-c2cnc3nc(N)nc(N4CCN(CC5CCCCC5)CC4)c3n2)cc1OC [Example 123] | 3900 nM | 4200 nM | 800 nM
31 | COc1ccc(-c2cnc3nc(N)nc(N4CCN(CC(=O)N(C)c5ccccc5)CC4)c3n2)cc1OC [Example 132, 2-amino-4-(2-[piperazin-1-yl]-acetic acid N-methyl N-phenyl amide)-6-(3,4-dimethoxyphenyl)pteridine] | < 100 nM | 5300 nM | 50 nM
32 | COc1ccc(-c2cnc3nc(N)nc(N4CCN(Cc5ccc(Cl)cc5)CC4)c3n2)cc1OC [Example 139, 2-amino-4-((4-chlorobenzyl)piperazin-1-yl)-6-(3,4-dimethoxyphenyl)pteridine] | – | 1200 nM | 400 nM
33 | COc1ccc(-c2cnc3nc(N)nc(N4CCN(c5cccc(C(F)(F)F)c5)CC4)c3n2)cc1OC [Example 173, 2-amino-6-(3,4-dimethoxyphenyl)-4-((3-trifluoromethylphenyl)-piperazin-1-yl)pteridine] | 700 nM | 4600 nM | –
34 | COc1ccc(-c2cnc3nc(N)nc(N4CCN(c5ccc(C(F)(F)F)cc5)CC4)c3n2)cc1OC [Example 180, 2-amino-6-(3,4-dimethoxyphenyl)-4-((4-trifluoromethylphenyl)-piperazin-1-yl)pteridine] | – | 4400 nM | 1400 nM
